Key:
Assay type in all cases: in vivo
[1] = test system: Lolium; assay: Example B4: post-emergence herbicidal action of compounds of the invention; design: key: 1=complete damage; 9=no effect; Ratings of 1 to 4 (in particular 1 to 3) mean a good to very good herbicidal action; settings: 3- to 6-leaf stage, 250 g of active substance/ha, 3 weeks after application, scale 1-9
Experimental: (§1) Monocotyledonous and dicotyledonous weeds are grown in standard soil in plastic pots under greenhouse conditions. The test substances are applied at the 3- to 6-leaf stage of the test plants. The test substances are applied (500 l of water/ha) as an aqueous suspension (prepared using a 25% wettable powder (Example F3, b)) or as an emulsion (prepared using a 25% emulsion concentrate (Example F1, c)) at an application rate of 250 g of active substance/ha. 3 weeks after the application, evaluation is carried out using a nine-level scale of ratings (1=complete damage, 9=no effect). Ratings of 1 to 4 (in particular 1 to 3) mean a good to very good herbicidal action. Test plants: Avena (Ave), Lolium (Lol), Setaria (Set).

[2] = test system: Setaria; assay: as above; design: key: 1=complete damage; 9=no effect; Ratings of 1 to 4 (in particular 1 to 3) mean a good to very good herbicidal action; settings: 3- to 6-leaf stage, 250 g of active substance/ha, 3 weeks after application, scale 1-9
Experimental: as §1

[3] = test system: Avena; assay: as above; design: key: 1=complete damage; 9=no effect; Ratings of 1 to 4 (in particular 1 to 3) mean a good to very good herbicidal action; settings: 3- to 6-leaf stage, 250 g of active substance/ha, 3 weeks after application, scale 1-9
Experimental: as §1

[4] = test system: all of the weeds tested; assay: Experimental comparison with the prior art: herbicidal action, pre- and post-emergence, overall statement; settings: 500 g of active substance/ha, against all of the weeds tested
Excerpt: The following compounds were examined for their herbicidal activity: Monocotyledonous and dicotyledonous weeds are sown in standard soil in plastic pots. Immediately after sowing, the test substances are applied (500 l of water/ha) as an aqueous suspension (prepared using a 25% wettable powder (Example F3, b)) or as an emulsion (prepared using a 25% emulsion concentrate (Example F1, c)). The application rate is 500 g of active substance/ha. The test plants are subsequently grown under optimum conditions in a greenhouse. 3 weeks after the application, evaluation is carried out using a nine-level scale of ratings (1=complete damage, 9=no effect). Ratings of 1 to 4 (in particular 1 to 3) mean a good to very good herbicidal action. Test plants: Alopecurus (Alo), Avena (Ave), Lolium (Lot), Setaria (Set), Panicum (Pan), Sorghum (Sor), Digitaria (Dig), Echinocloa (Ech) and Brachiaria (Bra). Monocotyledonous and dicotyledonous weeds are grown in standard soil in plastic pots under greenhouse conditions. The test substances are applied at the 3- to 6-leaf stage of the test plants. The test substances are applied (500 l of water/ha) as an aqueous suspension (prepared using a 25% wettable powder (Example F3, b)) or as an emulsion (prepared using a 25% emulsion concentrate (Example F1, c)) at an application rate of 500 g of active substance/ha. […]

[5] = test system: Lolium; assay: Example B2: post-emergence herbicidal action, comparison with prior art; design: key: 1=complete damage; 9=no effect; Ratings of 1 to 4 (in particular 1 to 3) mean a good to very good herbicidal action; settings: 3- to 6-leaf stage, 500 g of ai/ha, 3 weeks after application, scale 1-9
Experimental: as §1, with “500” for “250”, “plants: Alopecurus (Alo),” for “plants:”, “(Set), Panicum (Pan), Sorghum (Sor), Digitaria (Dig), Echinocloa (Ech) and Brachiaria (Bra).” for “(Set).”

[6] = test system: Brachiaria; assay: as above; design: key: 1=complete damage; 9=no effect; Ratings of 1 to 4 (in particular 1 to 3) mean a good to very good herbicidal action; settings: 3- to 6-leaf stage, 500 g of ai/ha, 3 weeks after application, scale 1-9
Experimental: as §1, with “500” for “250”, “plants: Alopecurus (Alo),” for “plants:”, “(Set), Panicum (Pan), Sorghum (Sor), Digitaria (Dig), Echinocloa (Ech) and Brachiaria (Bra).” for “(Set).”

[7] = test system: Panicum; assay: as above; design: key: 1=complete damage; 9=no effect; Ratings of 1 to 4 (in particular 1 to 3) mean a good to very good herbicidal action; settings: 3- to 6-leaf stage, 500 g of ai/ha, 3 weeks after application, scale 1-9
Experimental: as §1, with “500” for “250”, “plants: Alopecurus (Alo),” for “plants:”, “(Set), Panicum (Pan), Sorghum (Sor), Digitaria (Dig), Echinocloa (Ech) and Brachiaria (Bra).” for “(Set).”

[8] = test system: Sorghum; assay: as above; design: key: 1=complete damage; 9=no effect; Ratings of 1 to 4 (in particular 1 to 3) mean a good to very good herbicidal action; settings: 3- to 6-leaf stage, 500 g of ai/ha, 3 weeks after application, scale 1-9
Experimental: as §1, with “500” for “250”, “plants: Alopecurus (Alo),” for “plants:”, “(Set), Panicum (Pan), Sorghum (Sor), Digitaria (Dig), Echinocloa (Ech) and Brachiaria (Bra).” for “(Set).”

[9] = test system: Setaria; assay: as above; design: key: 1=complete damage; 9=no effect; Ratings of 1 to 4 (in particular 1 to 3) mean a good to very good herbicidal action; settings: 3- to 6-leaf stage, 500 g of ai/ha, 3 weeks after application, scale 1-9
Experimental: as §1, with “500” for “250”, “plants: Alopecurus (Alo),” for “plants:”, “(Set), Panicum (Pan), Sorghum (Sor), Digitaria (Dig), Echinocloa (Ech) and Brachiaria (Bra).” for “(Set).”

[10] = test system: Avena; assay: as above; design: key: 1=complete damage; 9=no effect; Ratings of 1 to 4 (in particular 1 to 3) mean a good to very good herbicidal action; settings: 3- to 6-leaf stage, 500 g of ai/ha, 3 weeks after application, scale 1-9
Experimental: as §1, with “500” for “250”, “plants: Alopecurus (Alo),” for “plants:”, “(Set), Panicum (Pan), Sorghum (Sor), Digitaria (Dig), Echinocloa (Ech) and Brachiaria (Bra).” for “(Set).”

[11] = test system: Echinocloa; assay: as above; design: key: 1=complete damage; 9=no effect; Ratings of 1 to 4 (in particular 1 to 3) mean a good to very good herbicidal action; settings: 3- to 6-leaf stage, 500 g of ai/ha, 3 weeks after application, scale 1-9
Experimental: as §1, with “500” for “250”, “plants: Alopecurus (Alo),” for “plants:”, “(Set), Panicum (Pan), Sorghum (Sor), Digitaria (Dig), Echinocloa (Ech) and Brachiaria (Bra).” for “(Set).”

[12] = test system: Digitaria; assay: as above; design: key: 1=complete damage; 9=no effect; Ratings of 1 to 4 (in particular 1 to 3) mean a good to very good herbicidal action; settings: 3- to 6-leaf stage, 500 g of ai/ha, 3 weeks after application, scale 1-9
Experimental: as §1, with “500” for “250”, “plants: Alopecurus (Alo),” for “plants:”, “(Set), Panicum (Pan), Sorghum (Sor), Digitaria (Dig), Echinocloa (Ech) and Brachiaria (Bra).” for “(Set).”

[13] = test system: Lolium; assay: Example B1: pre-emergence herbicidal action, comparison with prior art; settings: 500 g of ai/ha, 3 weeks after application, scale 1-9
Excerpt: (§2) Monocotyledonous and dicotyledonous weeds are sown in standard soil in plastic pots. Immediately after sowing, the test substances are applied (500 l of water/ha) as an aqueous suspension (prepared using a 25% wettable powder (Example F3, b)) or as an emulsion (prepared using a 25% emulsion concentrate (Example F1, c)). The application rate is 500 g of active substance/ha. The test plants are subsequently grown under optimum conditions in a greenhouse. 3 weeks after the application, evaluation is carried out using a nine-level scale of ratings (1=complete damage, 9=no effect). Ratings of 1 to 4 (in particular 1 to 3) mean a good to very good herbicidal action. Test plants: Alopecurus (Alo), Avena (Ave), Lolium (Lot), Setaria (Set), Panicum (Pan), Sorghum (Sor), Digitaria (Dig), Echinocloa (Ech) and Brachiaria (Bra).

[14] = test system: Panicum; assay: as above; settings: 500 g of ai/ha, 3 weeks after application, scale 1-9
Excerpt: as §2

[15] = test system: Sorghum; assay: as above; settings: 500 g of ai/ha, 3 weeks after application, scale 1-9
Excerpt: as §2

[16] = test system: Setaria; assay: as above; settings: 500 g of ai/ha, 3 weeks after application, scale 1-9
Excerpt: as §2

[17] = test system: Echinocloa; assay: as above; settings: 500 g of ai/ha, 3 weeks after application, scale 1-9
Excerpt: as §2

[18] = test system: Alopecurus; assay: Example B2: post-emergence herbicidal action, comparison with prior art; settings: 3- to 6-leaf stage, 500 g of ai/ha, 3 weeks after application, scale 1-9
Experimental: as §1, with “500” for “250”, “plants: Alopecurus (Alo),” for “plants:”, “(Set), Panicum (Pan), Sorghum (Sor), Digitaria (Dig), Echinocloa (Ech) and Brachiaria (Bra).” for “(Set).”

[19] = test system: Brachiaria; assay: Example B1: pre-emergence herbicidal action, comparison with prior art; settings: 500 g of ai/ha, 3 weeks after application, scale 1-9
Excerpt: as §2

[20] = test system: Avena; assay: as above; settings: 500 g of ai/ha, 3 weeks after application, scale 1-9
Excerpt: as §2

[21] = test system: Alopecurus; assay: as above; settings: 500 g of ai/ha, 3 weeks after application, scale 1-9
Excerpt: as §2

[22] = test system: Digitaria; assay: as above; settings: 500 g of ai/ha, 3 weeks after application, scale 1-9
Excerpt: as §2

[23] = test system: Lolium; assay: Example B3: pre-emergence herbicidal action of compounds of the invention; design: key: 1=complete damage; 9=no effect; Ratings of 1 to 4 (in particular 1 to 3) mean a good to very good herbicidal action; settings: 500 g of active substance/ha, 3 weeks after application, scale 1-9
Experimental: as §1, with “pots. Directly after sowing,” for “pots under greenhouse conditions. The test substances are applied at”, “the” for “the 3- to 6-leaf stage of the test plants. The”, “c)). The” for “c)) at an”, “is 500” for “of 250”, “substance/ha. The test plants are subsequently grown under optimum conditions in a greenhouse” for “substance/ha.”

[24] = test system: Setaria; assay: as above; design: key: 1=complete damage; 9=no effect; Ratings of 1 to 4 (in particular 1 to 3) mean a good to very good herbicidal action; settings: 500 g of active substance/ha, 3 weeks after application, scale 1-9
Experimental: as §1, with “pots. Directly after sowing,” for “pots under greenhouse conditions. The test substances are applied at”, “the” for “the 3- to 6-leaf stage of the test plants. The”, “c)). The” for “c)) at an”, “is 500” for “of 250”, “substance/ha. The test plants are subsequently grown under optimum conditions in a greenhouse” for “substance/ha.”

[25] = test system: Avena; assay: as above; design: key: 1=complete damage; 9=no effect; Ratings of 1 to 4 (in particular 1 to 3) mean a good to very good herbicidal action; settings: 500 g of active substance/ha, 3 weeks after application, scale 1-9
Experimental: as §1, with “pots. Directly after sowing,” for “pots under greenhouse conditions. The test substances are applied at”, “the” for “the 3- to 6-leaf stage of the test plants. The”, “c)). The” for “c)) at an”, “is 500” for “of 250”, “substance/ha. The test plants are subsequently grown under optimum conditions in a greenhouse” for “substance/ha.”

C#Cc1cc(C)cc(C)c1-c1c(OC(=O)C(C)(C)C)n2n(c1=O)CCOCC2 [1.016]
Post-emergence action, Lol (rating) [1]: 2 | Post-emergence action, Set (rating) [2]: 2 | Post-emergence action, Ave (rating) [3]: 3

Cc1cc(C)c(C2C(=O)N3CCOCCN3C2=O)c(C)c1 [Compound No. 1.01]
herbicidal action compared with compound A of the prior art [4]: considerably better herbicidal action

CCc1cc(C)cc(C)c1-c1c(OC(=O)C(C)(C)C)n2n(c1=O)CCOCC2 [1.005]
Post-emergence action, Lol (rating) [1]: 2 | Post-emergence action, Set (rating) [2]: 2 | Post-emergence action, Ave (rating) [3]: 1

Cc1cc(Br)c(-c2c(O)n3n(c2=O)CCOCC3)c(Br)c1 [1.088]
Post-emergence action, Lol (rating) [1]: 4 | Post-emergence action, Set (rating) [2]: 3 | Post-emergence action, Ave (rating) [3]: 4

Cc1cc(C)c(C2C(=O)N3CCCCCN3C2=O)c(C)c1 [compound A, reference compound]
Post-emergence action, Lol (rating) [5]: 5 | Post-emergence action, Bra (rating) [6]: 2 | Post-emergence action, Pan (rating) [7]: 2 | Post-emergence action, Sor (rating) [8]: 3 | Post-emergence action, Set (rating) [9]: 4 | Post-emergence action, Ave (rating) [10]: 2 | Post-emergence action, Ech (rating) [11]: 1 | Post-emergence action, Dig (rating) [12]: 5 | Pre-emergence action, Lol (rating) [13]: 4 | Pre-emergence action, Pan (rating) [14]: 7 | Pre-emergence action, Sor (rating) [15]: 6 | Pre-emergence action, Set (rating) [16]: 3 | Pre-emergence action, Ech (rating) [17]: 5 | Post-emergence action, Alo (rating) [18]: 5 | Pre-emergence action, Bra (rating) [19]: 3 | Pre-emergence action, Ave (rating) [20]: 7 | Pre-emergence action, Alo (rating) [21]: 5 | Pre-emergence action, Dig (rating) [22]: 7

CCc1cc(C)cc(C)c1-c1c(O)n2n(c1=O)CCOCC2 [1.004]
Pre-emergence action, Lol (rating) [23]: 1 | Pre-emergence action, Set (rating) [24]: 2 | Pre-emergence action, Ave (rating) [25]: 1
